Experimental data reported in patent US20040132643A1 (priority 2004, published 2004).

Key:
FTC 133 cells = settings: 1 ng/ml FR901228 for 72 hours
Protocol: (§1) FTC 133 and FTC 236 cells were derived from cultures obtained from the primary tumor (FTC 133) and a nodal metastasis (FTC 236) of a human follicular thyroid carcinoma. […] Anaplastic thyroid carcinoma lines SW-1736 and KAT-4 were derived from primary cultures of human anaplastic thyroid carcinoma tumors.
(§2) Each of these four cell lines was exposed to varying concentrations of FR901228 (0.01 ng/ml, 0.1 ng/ml, 1 ng/ml, 10 ng/ml) for 72 hours, following which cell viability was determined using the 3-[4,5-dimethylthiazol-2-yl]-2,5-diphenyl tetrazoliumbromide (MTT) assay, as described in Mosmann, J Immunol Methods 65:55-63, 1983, and Den Boer et al., Br. J. Haem. 105: 876-882, 2000. The MTT assay is a colorimetric assay of the loss of mitochondrial metabolic activity associated with cell death.

SW-1736 cells = settings: 1 ng/ml FR901228 for 72 hours
Protocol: as §1, §2

FTC 236 cells = settings: 1 ng/ml FR901228 for 72 hours
Protocol: as §1, §2

KAT-4 cells = settings: 1 ng/ml FR901228 for 72 hours
Protocol: as §1, §2

[1] = tested on: TG promoter-enhancer element; test: TG-luciferase reporter assay in transfected thyroid carcinoma cells; format: cell-based, human; settings: 1 ng/ml FR901228; for enhancement in luciferase activity over that observed in untreated cells / enhancement over RLU observed in untreated cells: TG-luc
thyroglobulin = test: RT PCR and northern blot analysis of thyroglobulin expression in thyroid carcinoma cells; format: cell-based, human
Protocol: (§3) RT PCR and Northern blot analysis are described in detail in a number of standard molecular biology reference works, for example Ausubel et al., Short Protocols in Molecular Biology, John Wiley & Sons, 1998.
(§4) Total RNA was extracted from FR901228-treated and untreated thyroid carcinoma cells using RNA STAT-60 (Tel-Test, Inc.), at 24 hours, 48 hours, and 72 hours following addition of FR901228-containing or control solution to the cell cultures. RNA was also extracted from normal thyroid cells for purposes of comparison. The extracted RNA was used without further modification for northern blots. For RT PCR, the extracted RNA was reverse transcribed into cDNA using standard techniques.
Oligonucleotide primers used for PCR analysis of human thyroglobulin expression were: […]
Using these primers, the presence of human thyroglobulin cDNA template is reflected by a 219 bp PCR product.

[2] = tested on: thymidine kinase (TK) promoter enhancer; test: TK-luciferase reporter assay (positive control) in transfected thyroid carcinoma cells; format: cell-based, human; settings: 1 ng/ml FR901228
Excerpt: As a positive control, FTC 236 and SW-1736 cells were transfected with a reporter plasmid encoding luciferase operably linked to the thymidine kinase (TK) promoter enhancer. The TK promoter enhancer is a constitutively active promoter element, meaning that it is not thyroid-specific and is fully active in all cell types.
For transfection, FTC 236 and SW-1736 cells were exposed to a transfection mixture of 0.5 micrograms of plasmid DNA, 4.5 microliters TransFast transfection reagent (Promega, Madison Wis.) and 200 microliters of RPMI medium. Plasmid DNA was either a TG-luciferase (TG-luc) construct or a TK-luciferase (TK-luc) construct. All transfections were performed in triplicate.
After incubating cells for one hour with the transfection mixture, cells were cultured in the presence or absence of 1 ng/ml FR901228 for two days. Cells were then harvested and lysed, and an extract of cellular protein was obtained. Total protein concentration in the extract was determined using the Bio-Rad protein assay system (Bio-Rad, Richmond Calif.). Luciferase activity was determined using the Luciferase Assay System (Promega, Madison Wis.), and was normalized to total protein concentration. […]

Na+/I- symporter [3] = test: RT PCR and northern blot analysis of Na+/I- symporter expression in thyroid carcinoma cells; format: cell-based, human
Protocol: as §3, §4
Oligonucleotide primers used for PCR analysis of human Na^+/I^− symporter expression were:
Using these primers, the presence of human Na^+/I^− symporter cDNA template is reflected by a 303 bp PCR product.

histone deacetylase = test: Histone acetylation by immunofluorescence microscopy (anti-acetylated histone H3) in thyroid carcinoma cells; format: cell-based, human; settings: 1 ng/ml FR901228 for 72 hours
Protocol: Histone acetylation was detected by immunofluorescence microscopy. In this experimental approach, fixed cells are exposed to a primary antibody that specifically binds to acetylated histones, and then exposed to an FITC-labeled secondary antibody that binds to the primary antibody.
FTC 236 and SW-1736 cells were cultured as described in Example 1, and treated for 72 hours with 1 ng/ml FR901228. Control FTC 236 and SW-1736 received no FR901228, but were otherwise treated identically to the FR901228-exposed cells. After 72 hours, each culture was treated with trypsin, harvested, and subjected to low speed centrifugation to form a cell pellet. Cells from each pellet were placed on microscope slides and fixed with 95% ethanol/5% acetic acid for one minute at room temperature. After fixation, slides were washed twice with phosphate buffered saline (PBS) for 15 minutes, treated with 8% bovine serum albumin in PBS for one hour at room temperature, and washed 15 minutes in PBS.
The fixed cells were then incubated overnight at 4° C. with 5 ug/ml anti-alpha acetylated histone H3 in 2% bovine serum albumin in PBS (antibody obtained from Upstate Biotechnology, Lake Placid N.Y.). Subsequently, cells were washed twice with PBS for five minutes at room temperature and then incubated with horse anti-rabbit FITC-conjugated secondary antibody (from Vector Labs, Burlingame Calif.). […]

Na+/I- symporter [4] = test: 125I iodine accumulation study in thyroid carcinoma cells; format: cell-based, human
Protocol: To evaluate the function of the Na^+/I^− symporter, iodine accumulation studies were performed. FTC 133, FTC 236 SW-1736 and KAT-4 cells were treated with 1 ng/ml FR901228 for two or three days, or left untreated. Cells were then incubated in 0.5 ml of Hanks' Balanced Salt Solution (HBSS; Life Technologies, Inc., Eggenstein, Germany) containing approximately 2 μCi carrier-free Na^125I (DuPont NEN, Boston, Mass.) and 30 μM NaI] ^125I for 10 minutes. For perchlorate studies NaCIO4 was added as a 100X solution in HBSS, to a final concentration of 30 and 100 μM, immediately after the addition of radiolabeled iodine. Excess radiolabeled iodine was then removed, and the amount of ^125I accumulated in the cells was determined by gamma counting.

[5] = ATC cells, 72 hours of FR901228 exposure
[6] = FTC cells, 72 hours of FR901228
[7] = FTC cells, RT PCR and northern blot

## C/C=C1\NC(=O)[C@H]2CSSCC/C=C/[C@H](CC(=O)N[C@H](C(C)C)C(=O)N2)OC(=O)[C@H](C(C)C)NC1=O [FR901228]
FTC 133 cells
  cytotoxicity (cell viability, MTT assay): not significantly cytotoxic
SW-1736 cells
  cytotoxicity (cell viability, MTT assay): not significantly cytotoxic
FTC 236 cells
  cytotoxicity (cell viability, MTT assay): not significantly cytotoxic
KAT-4 cells
  cytotoxicity (cell viability, MTT assay): not significantly cytotoxic
[1]; FTC 133 cells
  relative luciferase units (RLU) in TG-luc transfected cells, TK luc = 100%: about 1000%
  enhancement in luciferase activity over that observed in untreated cells: greater than tenfold
[1]; FTC 236 cells
  relative luciferase units (RLU) in TG-luc transfected cells, TK luc = 100%: about 1000%
  enhancement in luciferase activity over that observed in untreated cells: greater than tenfold
[1]; KAT-4 cells
  relative luciferase units (RLU) in TG-luc transfected cells, TK luc = 100%: 400-500%
  enhancement over RLU observed in untreated cells: greater than ten-fold
[1]; SW-1736 cells
  relative luciferase units (RLU) in TG-luc transfected cells, TK luc = 100%: 400-500%
  enhancement over RLU observed in untreated cells: greater than ten-fold
thyroglobulin; ATC cells
  time after FR901228 at which increased TG expression was first observed: 48 h
thyroglobulin; [5]
  TG expression after 72 hours: further increases
thyroglobulin; [6]
  TG expression after 72 hours: further increases
thyroglobulin; [7]
  time following addition of FR901228 at which increased TG expression was detected: ≤ 24 h
[2]
  effect on luciferase activity in TK luc-transfected cells: no effect
Na+/I- symporter [3]; ATC cells
  time after FR901228 at which increased Na+/I- symporter expression was first observed: 48 h
Na+/I- symporter [3]; [5]
  Na+/I- symporter expression after 72 hours: further increases
Na+/I- symporter [3]; [6]
  Na+/I- symporter expression after 72 hours: further increases
Na+/I- symporter [3]; [7]
  time following addition of FR901228 at which increased Na+/I- symporter expression was detected: ≤ 24 h
Histone deacetylase; FTC 236 cells
  histone acetylation (nuclear fluorescence) relative to the control cells: marked increase
Histone deacetylase; SW-1736 cells
  histone acetylation (nuclear fluorescence) relative to the control cells: marked increase
Na+/I- symporter [4]; four cell lines (FTC 133, FTC 236, SW-1736, KAT-4), 1 ng/ml FR901228, two and three days
  iodine (125I) accumulation: Marked increases

## [O-][Cl+3]([O-])([O-])O [sodium perchlorate]
Na+/I- symporter [4]; FR901228-treated thyroid carcinoma cells, perchlorate 30 and 100 μM
  inhibition of iodine (125I) accumulation: inhibited in a dose-dependent manner
